Test results as given in the supplement of paper PMC5770543.
± gives the standard deviation.

How the values were obtained:
[1] = tested on: Toxoplasma gondii RH tachyzoites; experiment: % growth inhibition vs DMSO (48 h luciferase); higher = more inhibition; conditions: 10 µM
[2] = tested on: Plasmodium falciparum 3D7; experiment: % inhibition of schizont-to-ring transition vs DMSO; higher = more inhibition
In short: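 Tightly synchronised P. falciparum schizonts (about 40–42 hours post-invasion, 1% parasitemia, 2.5% hematocrit, AlbuMAX-supplemented RPMI) were exposed to compound at 1, 3 or 10 µM, with vehicle and positive controls. Cells were glutaraldehyde-fixed, Triton-permeabilised, stained with Hoechst 33342 and counted by flow cytometry (at least 100,000 events). Schizont-to-ring transition inhibition is new ring formation relative to vehicle controls, averaged over three experiments.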

[3] = tested on: Toxoplasma gondii RH tachyzoites; experiment: plaque count per well; higher = less inhibition; extreme values may be limits of the assay; conditions: 10 µM; 8-10 days
Procedure: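 T. gondii RH tachyzoites expressing firefly luciferase were grown in HFF monolayers for 48 h with compound. % growth inhibition at 10 µM and EC50 (2-fold dilutions from 10 µM) were read by luminescence relative to 1% DMSO; EC50 listed as 10 (not determined, <80% inhibition) is left out. Plaque assays: 50 tachyzoites per well with 10 µM compound for 8-10 days, giving plaque count and area by crystal violet/ImageJ. Egress: median time to egress after 1 µM A23187 ionophore following 24 h of 10 µM compound (DMSO ~1.8 min; >10 = no egress within 10 min).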

[4] = tested on: Plasmodium falciparum 3D7; experiment: EC50 growth inhibition (60 h, SYBR Green); conditions: stage: ring-stage start
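Throughout, for % growth inhibition vs DMSO (48 h luciferase): tested in triplicate wells of 96-well plates on confluent HFF monolayers, with 1% DMSO wells as negative control in four replicates.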

Compound | % growth inhibition [1] [%] | % inhibition of schizont-to-ring transition ([2]; 1 µM) [%] | % inhibition of schizont-to-ring transition ([2]; 3 µM) [%] | % inhibition of schizont-to-ring transition ([2]; 10 µM) [%] | plaque count per well [3] | EC50 growth inhibition [4] [nM]
CCN1CCN(Cc2ccc(NC(=O)c3cc4ccc5cccnc5c4[nH]3)cc2)CC1 | < 0 | 36.2 | 49.2 | 55.2 | 31 | 161
CC1=C(CC(=O)c2cccc([N+](=O)[O-])c2)C(=O)c2ccccc2C1=O | < 0 | 32.3 | 55.7 | 59.9 | 0 | 9850
COc1ccc2nc(C)cc(Nc3cccc(O)c3)c2c1 | 19.7 ± 6.3 | 42.3 | 59.4 | 64 | 0 | 845
O=C(Nc1ccc(CN2CCOCC2)cc1)c1ccc(-c2ccc(Br)cc2)o1 | 8.26 ± 14 | 40.3 | 45.9 | 59.2 | 30 | 1420
COc1ccc(CN2CCN(Cc3ccccc3)CC2)c(O)c1 | 11.2 ± 5.4 | 13.1 | 19.6 | 40.3 | 29 | 2170
COc1ccc(N2CCN(C(CNC(=O)CC(C)(C)C)c3ccc4c(c3)OCO4)CC2)cc1 (stereo not given) | < 0 | 8.37 | 17.9 | 32.6 | 24 | 1680
CN1c2ccccc2N(C)C1c1ccc2c(c1)OCO2 | < 0 | < 0 | < 0 | 18.3 | 23 | 9760
Cc1ccc(-c2cc3nc4c(c(O)n3n2)CCCC4)cc1 | < 0 | 17.7 | 36.1 | 49.3 | 0 | 4270
CCCCc1c(C)nc2c(OC)cccc2c1O | 9.6 ± 15 | 41.9 | 45.3 | 49.4 | 0 | 2640
CCN(CC)CCNc1ncnc2c1[nH]c1ccc(Br)cc12 | 7.24 ± 12 | 41.8 | 49.9 | 55.8 | 26 | 225
COc1ccc(-n2ccnc2SCC(=O)Nc2cc(C)ccc2C)c(OC)c1 | < 0 | 41.6 | 49.9 | 56.2 | 31 | 226
COc1nc(Nc2ccc(C(C)C)cc2)nc(OC)n1 | < 0 | 20.3 | 32.6 | 54.9 | 30 | 2540
CCc1ccc(CNCC(O)c2ccccc2)cc1 (stereo not given) | < 0 | 12.2 | 14.9 | 45.9 | 21 | 4010
O=C(O)C1Cc2c([nH]c3ccccc23)C(c2ccc(Cl)cc2Cl)N1 (stereo not given) | < 0 | 8.54 | 18.6 | 26.4 | 32 | 1300
O=C(Nc1ccc(-c2nc3ccccc3[nH]2)cc1)c1ccc(Cl)c(Cl)c1 | 7.15 ± 8.1 | 6.82 | 10.1 | 44.2 | 23 | 7300
CCOc1ccc(N2C(N)=NC(N)=NC2(C)C)cc1 | < 0 | 5.22 | 7.7 | 16 | 28 | 9760
COc1ccc(-c2cc3c(nn2)-c2ccccc2C3=O)cc1 | < 0 | 14.8 | 34.7 | 50.6 | 29 | 781
CC(C)c1ccc(CNCC(O)c2ccccc2)cc1 (stereo not given) | 10.5 ± 1.3 | 7.33 | 20.6 | 59.6 | 0 | 2650
OC(CNC1CCCC1)Cn1c2ccccc2c2ccccc21 (stereo not given) | 15.9 ± 6.6 | 22.3 | 40.1 | 63.4 | 0 | 723
Clc1ccc2c(N3CCCC3)ccnc2c1 | < 0 | 43.1 | 53.3 | 69.9 | 25 | 1280
CCOc1cc(Cl)c(C(C)NC(=O)c2cccc(OC)c2)cc1OCC (stereo not given) | < 0 | 42.4 | 76.9 | 78.7 | 25 | 316

Compound | % growth inhibition [1] [%] | % inhibition of schizont-to-ring transition ([2]; 1 µM) [%] | % inhibition of schizont-to-ring transition ([2]; 3 µM) [%] | % inhibition of schizont-to-ring transition ([2]; 10 µM) [%] | plaque count per well [3] | EC50 growth inhibition [4] [nM]
O=C(NCC(c1ccsc1)N1CCCCCC1)c1ccc(C(F)(F)F)cc1 (stereo not given) | 11 ± 19 | 43.8 | 41.5 | 47.4 | 0 | 3350
COc1cccc(C(=O)NC(c2ccc(C)cc2)c2cc(Cl)c3cccnc3c2O)c1 (stereo not given) | < 0 | 30.4 | 42.1 | 49.9 | 0 | 7640
CCOC(=O)C1CCN(C(=O)CN2C(=O)c3ccccc3C2c2c[nH]c3ccccc23)CC1 (stereo not given) | < 0 | 15.7 | 32.3 | 65.4 | 31 | 971
Cc1c(C)n(Cc2ccc(F)cc2)c2ccc(C(=O)NCc3ccco3)cc12 | < 0 | 36.3 | 40.3 | 53.4 | 21 | 1770
O=C(Nc1ccc(Cl)cc1)N1CCN(c2ccc3nncn3n2)CC1 | < 0 | 13.1 | 24.8 | 54.3 | 22 | 6370
O=C(CSc1ccc2nnc(-c3cccc(F)c3)n2n1)Nc1ccc2c(c1)OCO2 | 15.9 ± 9.8 | 32 | 49.9 | 72.7 | 25 | 6570
COc1ccc(-c2cc3c(SCC(=O)Nc4cc(C(F)(F)F)ccc4Cl)nccn3n2)cc1 | < 0 | 35.7 | 37.5 | 49.5 | 28 | 259
c1ccc(/C2=N/c3ccccc3/N=C(/c3ccccc3)c3ccccc32)cc1 | < 0 | 57.3 | 79.1 | 80.6 | 0 | 1580
Cc1ccc(Nc2nc(NCCO)c3ccccc3n2)cc1C | < 0 | 54.1 | 66.8 | 69.1 | 0 | 194
CCOc1cc2c(cc1OCC)C(c1cc(C)c(O)c(C)c1)NCC2 (stereo not given) | 14.9 ± 14 | 6.53 | 17.1 | 43.5 | 31 | 792
Cc1cccc(N2C(=O)C3C(C2=O)C2(c4ccccc4)C(=O)C3(c3ccccc3)C(c3ccc4c(c3)OCO4)=C2c2ccc3c(c2)OCO3)c1 (stereo not given) | < 0 | < 0 | < 0 | 17.3 | 20 | 1020
COc1ccc(NC(=O)C2c3ccccc3C(=O)N(CC(C)C)C2c2cccs2)cc1 (stereo not given) | < 0 | 78.1 | 78 | 76.6 | 27 | 46.9
Cn1c(=O)c2cc(C(=O)NCCCN3CCCCCC3)sc2c2ccccc21 | 5.71 ± 9.9 | 42.6 | 49.5 | 53.2 | 25 | 833
Clc1ccc2[nH]c3c(NCCCN4CCOCC4)ncnc3c2c1 | < 0 | 40.9 | 53.1 | 56.3 | 23 | 189
COc1ccc(CNC2CCN(c3ccc(NC(=O)c4cccc(Cl)c4)cc3)CC2)cc1OC | 3.03 ± 5.2 | < 0 | 28.3 | 38.6 | 0 | 492
CCc1ccc(Nc2cc(C)nc3nc(C)nn23)cc1 | < 0 | 7.01 | 30 | 50.7 | 27 | 2280
Cc1ccc(N2C3c4ccccc4N(S(=O)(=O)c4ccc(C)cc4)C2c2ccccc2N3S(=O)(=O)c2ccc(C)cc2)cc1 | 19.1 ± 3 | < 0 | 5.25 | 18.3 | 0 | 
CN(C)c1ccc(N=Cc2ccc(N3CCOCC3)cc2)cc1 | < 0 | 17.3 | 20 | 24 | 22 | 
Cc1cc(N2CCN(C3CCCC3)CC2)n2c(nc3ccccc32)c1C#N | < 0 | 33.3 | 39.3 | 51.3 | 30 | 878
COc1ccc(-c2c(C)nn3c(N)c(C#N)cnc23)cc1OC | 7.54 ± 13 | 71.1 | 74.9 | 76.1 | 22 | 3710
CCOc1ccc(CN2CCN(CC(O)COc3ccc(OCC(O)CN4CCN(Cc5ccc(OCC)cc5)CC4)cc3)CC2)cc1 (stereo not given) | 4.15 ± 5.8 | < 0 | 14.6 | 59.9 | 0 | 3120

Compound | % growth inhibition [1] [%] | % inhibition of schizont-to-ring transition ([2]; 1 µM) [%] | % inhibition of schizont-to-ring transition ([2]; 3 µM) [%] | % inhibition of schizont-to-ring transition ([2]; 10 µM) [%] | plaque count per well [3] | EC50 growth inhibition [4] [nM]
OC(CNC1CCCCC1)Cn1c2ccccc2c2ccccc21 (stereo not given) | < 0 | 48.9 | 69 | 75.3 | 21 | 985
CCCCCCc1cc2cc(-c3nc4ccccc4[nH]3)c(=Nc3ccccc3C)oc2cc1O | < 0 | 9.35 | 11.5 | 23.5 | 3 | 
OCCNc1nc(Nc2ccc(Cl)c(Cl)c2)nc2ccccc12 | < 0 | 51 | 66.3 | 68.9 | 0 | 180
COc1ccc(Br)cc1C1Nc2ccc3ccccc3c2C2=C1C(=O)CC(c1ccccc1)C2 (stereo not given) | 12.1 ± 11 | < 0 | 4.06 | 29.3 | 0 | 387
O=C(Nc1cccc(C2=NCCN2)c1)Nc1cccc(C2=NCCN2)c1 | 7.82 ± 3.2 | < 0 | 1.31 | 32.2 | 38 | 1840
CCOC(=O)C1(Cc2ccccc2)CCN(Cc2cccc(OC)c2O)CC1 | 1.84 ± 3.2 | 25.8 | 34 | 55.9 | 0 | 1330
COc1ccc(N2CCN(C(CNC(=O)C3CCCCC3)c3ccc4c(c3)OCO4)CC2)cc1 (stereo not given) | < 0 | 41.5 | 44.2 | 49.2 | 23 | 6240
COc1ccc(C(=O)Nc2nonc2-c2ccc(OC)c(OC)c2)cc1Cl | 1.09 ± 1.9 | 35.7 | 67.3 | 69.4 | 20 | 420
C[n+]1c2ccccc2nc2ccc(NCCO)cc21 | < 0 | 33.2 | 48.3 | 65.4 | 0 | 96.4
COc1ccccc1CNC(=O)CCn1c(=O)[nH]c2ccsc2c1=O | < 0 | 11.4 | 30.6 | 49.9 | 22 | 6070
CC(C)=CCN1CCC(C(=O)Nc2ccc(-c3nc4ccccc4[nH]3)cc2)CC1 | 19.7 ± 20 | 18 | 45.8 | 59.4 | 0 | 464
CCOc1ccccc1NC(=O)CN1CCN(C(=O)c2ccco2)CC1 | < 0 | 43.4 | 49.8 | 60 | 35 | 
O=C1c2ccccc2-c2nnc(-c3ccc(Br)cc3)cc21 | < 0 | 5.35 | 17.7 | 32.6 | 24 | 
COc1ccc(CCNC(=O)c2cc(S(=O)(=O)N3CC(C)CC(C)C3)ccc2Sc2ccc(F)cc2)cc1OC (stereo not given) | 11.7 ± 10 | 11.3 | 12.5 | 22.9 | 28 | 
Cc1ccc(-c2nc3ccccc3o2)cc1NCc1cc(Cc2ccccc2)ccc1O | < 0 | 36.5 | 47.5 | 56.6 | 36 | 
Nc1ccn([C@@H]2O[C@H](CO)[C@@H](O)[C@H]2O)c(=O)n1 | < 0 | 35.8 | 40.5 | 42.6 | 29 | 
O=C(NC1CCN(Cc2ccccc2)CC1)c1cc2nc(-c3ccc(Cl)s3)cc(C(F)(F)F)n2n1 | < 0 | 13.4 | 13.8 | 27.3 | 22 | 
CC1CCN(Cc2c(O)ccc3cc(-c4nc5ccccc5s4)c(=O)oc23)CC1 | 18.7 ± 17 | 6.51 | 20.3 | 38.2 | 0 | 
CCN(CC)S(=O)(=O)c1ccc(-c2csc(Nc3ccc(C)c(C)c3)n2)cc1 | 71.8 ± 4.9 | 5.05 | 6.93 | 26.5 | 26 | 
CCOC(=O)C1=C(C)N=c2sc(=Cc3ccccc3O)c(=O)n2C1c1ccc(OC)c2ccccc12 (stereo not given) | 4.31 ± 0.81 | 13.3 | 53.1 | 60.5 | 18 | 
O=C(Nc1ccsc1C(=O)NC1CCCCC1)c1ccc(F)cc1 | < 0 | 4.95 | 8.54 | 14.8 | 20 | 
